COC(=O)c1cc(O)c(O)c(O)c1
solubility (mole fraction)
Settings | in acetone | in ethanol | in ethyl acetate | in isobutanol | in isopropanol | in methanol | in methyl acetate | in n-butanol | in n-propanol
293.15 K | 0.0929 | 0.0706 | 0.0217 | 0.02 | 0.0505 | 0.0812 | 0.0266 | 0.0354 | 0.0425
298.15 K | 0.099 | 0.0758 | 0.0247 | 0.0231 | 0.0556 | 0.0864 | 0.0305 | 0.0398 | 0.0475
303.15 K | 0.106 | 0.0819 | 0.0283 | 0.0266 | 0.0625 | 0.0931 | 0.0348 | 0.0446 | 0.053
308.15 K | 0.113 | 0.0881 | 0.0324 | 0.0306 | 0.0677 | 0.1 | 0.0396 | 0.0499 | 0.0582
313.15 K | 0.121 | 0.0955 | 0.0372 | 0.0351 | 0.0747 | 0.107 | 0.045 | 0.0557 | 0.0646
318.15 K | 0.13 | 0.103 | 0.0425 | 0.0403 | 0.0819 | 0.115 | 0.0509 | 0.0621 | 0.0713
323.15 K | 0.139 | 0.11 | 0.0487 | 0.0462 | 0.0902 | 0.123 | 0.0573 | 0.069 | 0.0783
328.15 K | 0.15 | 0.119 | 0.055 | 0.0528 | 0.0991 | 0.134 | 0.0643 | 0.0766 | 0.0864
333.15 K | 0.161 | 0.128 | 0.0621 | 0.0603 | 0.107 | 0.143 | 0.0718 | 0.0847 | 0.0957

From BigSolDB 2.1
